Measurements reported in patent US8518939B2, “6-pyrimidinyl-pyrimid-4-one derivative” (Mitsubishi Tanabe Pharma Corporation, priority 2007, dated 2013).

Experiments:
CYP2D6 = CYP2D6 (Homo sapiens, UniProt P10635); assay: Inhibitory activity on CYP2D6, human recombinant CYPs; assay type: in vitro ADME; details: human recombinant CYP2D6, substrate ethylene glycol ester of luciferin-6'-methyl ether; read-out: CYP 2D6 inhibition, IC50 value
Experimental: The purpose of this pharmacokinetic study was to investigate the inhibitory effects of test compounds on the specific metabolic activity of human CYP isozymes using human recombinant CYPs in vitro. […] The specific substrate and positive control is ethylene glycol ester of luciferin-6′-methyl ether and quinidine, respectively. The substrate for the CYP isozyme was incubated with human recombinant CYPs in the presence or absence of the test compounds and the metabolic activity of the CYP isozyme was determined. The reaction mixture was preincubated at 37° C. without NADPH generating system. The reaction was started by the addition of NADPH generating system, and then terminated by the addition of acetonitrile. The activities of the human CYP isozymes were measured by fluorescence signal (CYP2D6) of reaction mixture.

scopolamine-treated mice = assay: Object recognition test, 3 h inter-trial interval, scopolamine-induced episodic memory deficit

Sequence of CYP2D6 (P10635 whole entry): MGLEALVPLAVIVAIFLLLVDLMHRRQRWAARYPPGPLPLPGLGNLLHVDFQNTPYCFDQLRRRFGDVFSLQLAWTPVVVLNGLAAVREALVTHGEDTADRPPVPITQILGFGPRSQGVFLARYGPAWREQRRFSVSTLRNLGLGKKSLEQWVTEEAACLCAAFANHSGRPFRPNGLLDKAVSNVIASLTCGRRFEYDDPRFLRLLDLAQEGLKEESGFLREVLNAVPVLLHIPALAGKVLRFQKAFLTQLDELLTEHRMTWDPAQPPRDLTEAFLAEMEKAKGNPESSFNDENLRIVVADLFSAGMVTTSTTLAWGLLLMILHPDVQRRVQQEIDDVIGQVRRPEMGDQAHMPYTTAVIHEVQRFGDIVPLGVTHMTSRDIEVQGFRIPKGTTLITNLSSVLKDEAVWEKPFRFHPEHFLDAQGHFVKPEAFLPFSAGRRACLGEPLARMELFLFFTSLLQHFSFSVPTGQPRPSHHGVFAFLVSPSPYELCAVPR

| Structure (SMILES) | IC50 (CYP2D6) | melting point | effect on episodic memory deficits induced by scopolamine (scopolamine-treated mice; 3 mg/kg oral) | MED, prevention of episodic memory deficits (scopolamine-treated mice; scopolamine-treated mice) | recognition index (RI) (scopolamine-treated mice; scopolamine 1 mg/kg 30 minutes before acquisition, 0 mg/kg test compound, 3 h interval) |
| --- | --- | --- | --- | --- | --- |
| Cn1c(N2CCOC(c3nc(-c4ccccc4)no3)C2)nc(-c2ccncn2)cc1=O (stereo not drawn) [Compound 1, 1-Methyl-2-[2-(3-phenyl-[1,2,4]oxadiazol-5-yl)-morpholin-4-yl]-1H-[4,4′]bipyrimidinyl-6-one] | > 50 µM |  |  |  |  |
| Cc1nc(-c2ccc([C@H]3CN(c4nc(-c5ccncn5)cc(=O)n4C)CCO3)cc2)no1 [Compound of the present invention] | > 50 µM | 191 °C | ineffective | 10 mg/kg |  |
| CN1[C@@H]2C[C@@H](OC(=O)[C@H](CO)c3ccccc3)C[C@H]1[C@@H]1O[C@@H]12 [scopolamine, reference compound] |  |  |  |  | 49.9% |

More lines, main results first:

| IC50 (CYP2D6) | melting point | Structure (SMILES) | effect on episodic memory deficits induced by scopolamine (scopolamine-treated mice; 3 mg/kg oral) | MED, prevention of episodic memory deficits (scopolamine-treated mice; scopolamine-treated mice) | recognition index (RI) (scopolamine-treated mice; scopolamine 1 mg/kg 30 minutes before acquisition, 0 mg/kg test compound, 3 h interval) |
| --- | --- | --- | --- | --- | --- |
| > 25 µM |  | Cn1c(N2CCOC(c3noc(-c4ccccc4)n3)C2)nc(-c2ccncn2)cc1=O (stereo not drawn) [Compound 2, 1-Methyl-2-[2-(5-phenyl-[1,2,4]oxadiazol-3-yl)-morpholin-4-yl]-1H-[4,4′]bipyrimidinyl-6-one] |  |  |  |
| > 50 µM | 179.8 °C (dec.) | Cn1ccnc1-c1ccc(C2CN(c3nc(-c4ccncn4)cc(=O)n3C)CCO2)cc1 (stereo not drawn) [Compound 4, 1-Methyl-2-{2-[4-(1-methyl-1H-imidazol-2-yl)-phenyl]-morpholin-4-yl}-1H-[4,4′]bipyrimidinyl-6-one] |  |  |  |
